EC50 data for six compounds are collected here from EP4596574A1, “GLP-1/GCG/GIP TRIPLE-RECEPTOR AGONIST AND USE THEREOF” (Sunshine Lake Pharma Co., Ltd., priority 2022, dated 2024).

pEC50: −log10 of the molar value. Starred links: 1 amine or outer side, 2 acyl side, 3 side chain; linkers in the order of their positions; H or OH if unused. Non-standard residues stand in square brackets, D forms with d. Residues, ends and D or L forms follow the SMILES beside them. Groups on a side chain read outwards from the residue. *: point of attachment. C18 diacid = O=C(O)CCCCCCCCCCCCCCCCC(=O)*; αMePhe(2-F) = C[C@](N)(Cc1ccccc1F)C(=O)O; γGlu = O=C(O)[C@H](CCC(=O)[*:2])N[*:1]; AEEA = NCCOCCOCC(=O)O; Aib = CC(C)(N)C(=O)O

Common to all, as to assay type: cell-based
The target in assay [1] is T1, GLP-1R (Homo sapiens, UniProt P43220).
T1 construct: expressed in transfected cells; host or cells: HEK293 (HEK293-GLP-1R)
Nature of the assay: In vitro cell activity, cAMP production in HEK293 cells expressing GLP-1R. The note with it: HEK293-GLP-1R cells, cAMP; read-out: GLP-1R (EC50). In short, it runs like this: (§1)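 Cells were plated at 4×10^5 cells/mL, and detection reagents (cAMP-d2, anti-cAMP cryptate, 1:1) were incubated 1 h at room temperature in the dark or overnight at 4 °C.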
A general note: cAMP levels reflect the balance of adenylyl cyclase and phosphodiesterase activity.

Assay [2] concerns the target T2, GCGR (Homo sapiens, UniProt P47871).
T2 construct: expressed in transfected cells; host or cells: HEK293 (HEK293-GCGR)
Nature of the assay: In vitro cell activity, cAMP production in HEK293 cells expressing GCGR. The settings on record: HEK293-GCGR cells, cAMP; read-out: GCGR (EC50). In short, it runs like this:
as §1

For assay [3], the target named is T3, GIPR (Homo sapiens, UniProt P48546).
T3 construct: expressed in transfected cells; host or cells: HEK293 (HEK293-GIPR)
T3 sequence (P48546 22-466): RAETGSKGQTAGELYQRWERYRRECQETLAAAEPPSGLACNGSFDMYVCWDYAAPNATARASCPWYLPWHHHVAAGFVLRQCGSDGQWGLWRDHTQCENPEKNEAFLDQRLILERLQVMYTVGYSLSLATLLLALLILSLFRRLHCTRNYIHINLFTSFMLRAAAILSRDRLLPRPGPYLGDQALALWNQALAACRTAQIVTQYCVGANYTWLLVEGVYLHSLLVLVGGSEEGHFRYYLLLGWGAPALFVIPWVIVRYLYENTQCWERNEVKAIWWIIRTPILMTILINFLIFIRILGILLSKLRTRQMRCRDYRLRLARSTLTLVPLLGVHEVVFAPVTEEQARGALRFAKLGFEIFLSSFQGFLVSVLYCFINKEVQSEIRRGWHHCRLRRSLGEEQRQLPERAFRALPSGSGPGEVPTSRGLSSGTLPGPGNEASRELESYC
Nature of the assay: In vitro cell activity, cAMP production in HEK293 cells expressing GIPR. The note with it: HEK293-GIPR cells, cAMP; read-out: GIPR (EC50). In short, it runs like this:
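cAMP accumulation is quantified by homogeneous TR-FRET (cAMP-d2 plus anti-cAMP cryptate) in GIPR-expressing HEK293 cells seeded from a 4×10^5 cells/mL suspension and treated with compound. The signal ratio is plotted against concentration and fitted to a four-parameter curve to give EC50.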

T1 sequence (P43220 24-463, species assumed): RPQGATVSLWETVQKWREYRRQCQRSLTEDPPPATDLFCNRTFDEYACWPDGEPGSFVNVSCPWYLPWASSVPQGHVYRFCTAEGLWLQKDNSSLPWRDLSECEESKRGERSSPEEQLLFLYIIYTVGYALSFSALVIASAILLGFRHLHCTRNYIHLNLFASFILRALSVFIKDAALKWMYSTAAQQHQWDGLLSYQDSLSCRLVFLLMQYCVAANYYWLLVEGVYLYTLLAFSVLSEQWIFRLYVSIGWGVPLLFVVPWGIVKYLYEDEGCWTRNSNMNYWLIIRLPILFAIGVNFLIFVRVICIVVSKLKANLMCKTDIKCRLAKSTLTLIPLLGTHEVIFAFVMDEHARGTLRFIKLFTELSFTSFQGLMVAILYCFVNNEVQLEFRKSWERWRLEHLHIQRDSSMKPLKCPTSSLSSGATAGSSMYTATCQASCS
T2 sequence (P47871 26-477, species assumed): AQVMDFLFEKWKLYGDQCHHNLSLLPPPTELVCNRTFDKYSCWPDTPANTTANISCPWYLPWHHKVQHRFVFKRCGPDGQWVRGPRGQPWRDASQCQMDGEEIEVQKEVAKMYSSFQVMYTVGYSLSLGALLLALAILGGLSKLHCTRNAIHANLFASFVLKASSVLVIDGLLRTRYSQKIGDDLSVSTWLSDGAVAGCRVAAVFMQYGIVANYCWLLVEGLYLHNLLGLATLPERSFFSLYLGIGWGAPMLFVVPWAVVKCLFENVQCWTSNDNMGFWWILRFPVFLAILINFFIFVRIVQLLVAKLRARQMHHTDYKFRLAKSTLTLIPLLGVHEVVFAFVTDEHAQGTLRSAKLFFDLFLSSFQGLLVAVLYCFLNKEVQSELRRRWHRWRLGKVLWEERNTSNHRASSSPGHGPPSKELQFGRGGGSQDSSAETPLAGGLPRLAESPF

For orientation: pEC50 means −log10 of the EC50, conventionally taken in molar units. In the case of `CC[C@H](C)[C@H](NC(=O)[C@H](Cc1ccccc1)NC(=O)[C@H](CCC(=O)O)NC(=O)[C@H](CCC(N)=O)NC(=O)[C@H](CCC(N)=O)NC(=O)[C@H](C)NC(=O)[C@H](CCCCNC(=O)COCCOCCNC(=O)CC[C@H](NC(=O)CCCCCCCCCCCCCCCCCCC(=O)O)C(=O)O)NC(=O)[C@H](CCC(=O)O)NC(=O)[C@H](CC(=O)O)NC(=O)[C@H](CC(C)C)NC(=O)[C@H](CC(C)C)NC(=O)[C@@H](NC(=O)[C@H](CO)NC(=O)[C@H](Cc1ccc(O)cc1)NC(=O)[C@H](CC(=O)O)NC(=O)[C@H](CO)NC(=O)[C@@H](NC(=O)[C@](C)(Cc1ccccc1F)NC(=O)[C@@H](NC(=O)CNC(=O)[C@H](CCC(N)=O)NC(=O)C(C)(C)NC(=O)[C@@H](N)Cc1ccc(O)cc1)[C@@H](C)O)[C@@H](C)O)[C@@H](C)CC)C(=O)N[C@@H](CCC(=O)O)C(=O)N[C@@H](Cc1c[nH]c2ccccc12)C(=O)N[C@@H](CC(C)C)C(=O)N[C@@H](CC(C)C)C(=O)N[C@@H](C)C(=O)NCC(=O)NCC(=O)N1CCC[C@H]1C(=O)N[C@@H](CO)C(=O)N[C@@H](CO)C(=O)NCC(=O)N[C@@H](C)C(=O)N1CCC[C@H]1C(=O)N1CCC[C@H]1C(=O)N1CCC[C@H]1C(=O)N[C@@H](CO)C(=O)O` [HEC-PT90], the results for the negative logarithm of the EC50 (pEC50) in assay [1], in assay [2] and in assay [3] were 9.50, 8.15 and 9.73, respectively.
In the same order, the values of `CC[C@H](C)[C@H](NC(=O)[C@H](CO)NC(=O)[C@H](Cc1ccc(O)cc1)NC(=O)[C@H](CC(=O)O)NC(=O)[C@H](CO)NC(=O)[C@@H](NC(=O)[C@](C)(Cc1ccccc1F)NC(=O)[C@@H](NC(=O)CNC(=O)[C@H](CCC(N)=O)NC(=O)C(C)(C)NC(=O)[C@@H](N)Cc1ccc(O)cc1)[C@@H](C)O)[C@@H](C)O)C(=O)N[C@@H](CC(C)C)C(=O)N[C@@H](CCCCNC(=O)COCCOCCNC(=O)CC[C@H](NC(=O)CCCCCCCCCCCCCCCCC(=O)O)C(=O)O)C(=O)N[C@@H](CC(=O)O)C(=O)N[C@@H](CCCNC(=N)N)C(=O)N[C@@H](CCCNC(=N)N)C(=O)N[C@@H](C)C(=O)N[C@@H](CCC(N)=O)C(=O)N[C@@H](CCC(N)=O)C(=O)N[C@@H](C)C(=O)N[C@@H](Cc1ccccc1)C(=O)N[C@H](C(=O)N[C@@H](CCC(=O)O)C(=O)N[C@@H](Cc1ccc(O)cc1)C(=O)N[C@@H](CC(C)C)C(=O)N[C@@H](CC(C)C)C(=O)N[C@@H](CCC(=O)O)C(=O)NCC(=O)NCC(=O)N1CCC[C@H]1C(=O)N[C@@H](CO)C(=O)N[C@@H](CO)C(=O)NCC(=O)N[C@@H](C)C(=O)N1CCC[C@H]1C(=O)N1CCC[C@H]1C(=O)N1CCC[C@H]1C(=O)N[C@@H](CO)C(=O)O)C(C)C` [HEC-PT149] (H-Y[Aib]QGT[αMePhe(2-F)]TSDYSILK([AEEA-γGlu-C18 diacid])DRRAQQAFVEYLLEGGPSSGAPPPS-OH) are 10.06, 9.86 and 9.58.
In the same order, the values of `CC[C@H](C)[C@H](NC(=O)[C@H](Cc1ccccc1)NC(=O)[C@H](C)NC(=O)[C@H](CCCCN)NC(=O)[C@H](CCC(N)=O)NC(=O)[C@H](CCCCN)NC(=O)[C@H](CCCCNC(=O)COCCOCCNC(=O)CC[C@H](NC(=O)CCCCCCCCCCCCCCCCC(=O)O)C(=O)O)NC(=O)[C@H](CCC(=O)O)NC(=O)[C@H](CC(=O)O)NC(=O)[C@H](CC(C)C)NC(=O)[C@H](CC(C)C)NC(=O)[C@@H](NC(=O)[C@H](CO)NC(=O)[C@H](Cc1ccc(O)cc1)NC(=O)[C@H](CC(=O)O)NC(=O)[C@H](CO)NC(=O)[C@@H](NC(=O)[C@](C)(Cc1ccccc1F)NC(=O)[C@@H](NC(=O)CNC(=O)[C@H](CCC(N)=O)NC(=O)C(C)(C)NC(=O)[C@@H](N)Cc1ccc(O)cc1)[C@@H](C)O)[C@@H](C)O)[C@@H](C)CC)C(=O)N[C@@H](CCC(=O)O)C(=O)N[C@@H](Cc1ccc(O)cc1)C(=O)N[C@@H](CC(C)C)C(=O)N[C@@H](CC(C)C)C(=O)N[C@@H](C)C(=O)NCC(=O)NCC(=O)N1CCC[C@H]1C(=O)N[C@@H](CO)C(=O)N[C@@H](CO)C(=O)NCC(=O)N[C@@H](C)C(=O)N1CCC[C@H]1C(=O)N1CCC[C@H]1C(=O)N1CCC[C@H]1C(=O)N[C@@H](CO)C(N)=O` [HEC-PT130] are 9.77, 8.31 and 9.27.
The like results for `CC[C@H](C)[C@H](NC(=O)[C@H](CC(C)C)NC(=O)[C@H](Cc1c[nH]c2ccccc12)NC(=O)[C@H](CCC(=O)O)NC(=O)[C@@H](NC(=O)[C@H](Cc1ccccc1)NC(=O)[C@H](CC(=O)O)NC(=O)[C@H](CCC(N)=O)NC(=O)[C@H](CCC(N)=O)NC(=O)[C@H](C)NC(=O)[C@H](CCCCNC(=O)COCCOCCNC(=O)CC[C@H](NC(=O)CCCCCCCCCCCCCCCCCCC(=O)O)C(=O)O)NC(=O)[C@H](CCC(=O)O)NC(=O)[C@H](CC(=O)O)NC(=O)[C@H](CC(C)C)NC(=O)[C@H](CC(C)C)NC(=O)[C@@H](NC(=O)[C@H](CO)NC(=O)[C@H](Cc1ccc(O)cc1)NC(=O)[C@H](CC(=O)O)NC(=O)[C@H](CO)NC(=O)[C@@H](NC(=O)[C@](C)(Cc1ccccc1F)NC(=O)[C@@H](NC(=O)CNC(=O)[C@H](CCC(N)=O)NC(=O)C(C)(C)NC(=O)[C@@H](N)Cc1ccc(O)cc1)[C@@H](C)O)[C@@H](C)O)[C@@H](C)CC)[C@@H](C)CC)C(=O)N[C@@H](C)C(=O)NCC(=O)NCC(=O)N1CCC[C@H]1C(=O)N[C@@H](CO)C(=O)N[C@@H](CO)C(=O)NCC(=O)N[C@@H](C)C(=O)N1CCC[C@H]1C(=O)N1CCC[C@H]1C(=O)N1CCC[C@H]1C(=O)N[C@@H](CO)C(=O)O` [HEC-PT69] were, in that order, 8.66, 7.51 and 9.38.
For the compound `CC[C@H](C)[C@H](NC(=O)[C@H](CO)NC(=O)[C@H](Cc1ccc(O)cc1)NC(=O)[C@H](CC(=O)O)NC(=O)[C@H](CO)NC(=O)[C@@H](NC(=O)[C@](C)(Cc1ccccc1F)NC(=O)[C@@H](NC(=O)CNC(=O)[C@H](Cc1c[nH]cn1)NC(=O)C(C)(C)NC(=O)[C@@H](N)Cc1ccc(O)cc1)[C@@H](C)O)[C@@H](C)O)C(=O)N[C@@H](CC(C)C)C(=O)N[C@@H](CC(C)C)C(=O)N[C@@H](CC(=O)O)C(=O)N[C@@H](CCC(=O)O)C(=O)N[C@@H](CCCCNC(=O)COCCOCCNC(=O)CC[C@H](NC(=O)CCCCCCCCCCCCCCCCC(=O)O)C(=O)O)C(=O)N[C@@H](C)C(=O)N[C@@H](CCC(N)=O)C(=O)NC(C)(C)C(=O)N[C@@H](CCC(=O)O)C(=O)N[C@@H](Cc1ccccc1)C(=O)N[C@H](C(=O)N[C@@H](CCC(=O)O)C(=O)N[C@@H](Cc1c[nH]c2ccccc12)C(=O)N[C@@H](CC(C)C)C(=O)N[C@@H](CC(C)C)C(=O)N[C@@H](C)C(=O)NCC(=O)NCC(=O)N1CCC[C@H]1C(=O)N[C@@H](CO)C(=O)N[C@@H](CO)C(=O)NCC(=O)N[C@@H](C)C(=O)N1CCC[C@H]1C(=O)N1CCC[C@H]1C(=O)N1CCC[C@H]1C(=O)N[C@@H](CO)C(N)=O)[C@@H](C)CC` [HEC-PT107], the pEC50 was 9.57 in assay [1], 8.45 in assay [2] and 10.10 in assay [3].
In the same order, the values of `CC[C@H](C)[C@H](NC(=O)[C@H](CO)NC(=O)[C@H](Cc1ccc(O)cc1)NC(=O)[C@H](CC(=O)O)NC(=O)[C@H](CO)NC(=O)[C@@H](NC(=O)[C@](C)(Cc1ccccc1F)NC(=O)[C@@H](NC(=O)CNC(=O)[C@H](CCC(N)=O)NC(=O)C(C)(C)NC(=O)[C@@H](N)Cc1ccc(O)cc1)[C@@H](C)O)[C@@H](C)O)C(=O)N[C@@H](CC(C)C)C(=O)N[C@@H](CC(C)C)C(=O)N[C@@H](CC(=O)O)C(=O)N[C@@H](CCC(=O)O)C(=O)N[C@@H](CCCCNC(=O)COCCOCCNC(=O)CC[C@H](NC(=O)CCCCCCCCCCCCCCCCC(=O)O)C(=O)O)C(=O)N[C@@H](CCCNC(=N)N)C(=O)N[C@@H](CCC(N)=O)C(=O)N[C@@H](CCCNC(=N)N)C(=O)N[C@@H](C)C(=O)N[C@@H](Cc1ccccc1)C(=O)N[C@H](C(=O)N[C@@H](CCC(=O)O)C(=O)N[C@@H](Cc1ccc(O)cc1)C(=O)N[C@@H](CC(C)C)C(=O)N[C@@H](CC(C)C)C(=O)N[C@@H](C)C(=O)NCC(=O)NCC(=O)N1CCC[C@H]1C(=O)N[C@@H](CO)C(=O)N[C@@H](CO)C(=O)NCC(=O)N[C@@H](C)C(=O)N1CCC[C@H]1C(=O)N1CCC[C@H]1C(=O)N1CCC[C@H]1C(=O)N[C@@H](CO)C(=O)O)C(C)C` [HEC-PT135] are 9.72, 9.04 and 9.55.
